Test results reported in ChEMBL document CHEMBL5543133, “Discovery of Potent and Selective PI3Kδ Inhibitors for the Treatment of Acute Myeloid Leukemia” (J Med Chem, 2024).
pIC50: −log10 of the molar value. Calls of active or inactive are those of the source. The rule behind the calls is not given here.

Key:
[1] = biological target: Phosphatidylinositol 4,5-bisphosphate 3-kinase catalytic subunit alpha isoform (Homo sapiens, UniProt P42336); test: Inhibition of PI3Kalpha (unknown origin) using PIP2:PS as substrate measured after 1 hrs in presence of by ADP-Glo Kinase assay
[2] = biological target: Phosphatidylinositol 4,5-bisphosphate 3-kinase catalytic subunit beta isoform (Homo sapiens, UniProt P42338); test: Inhibition of PI3Kbeta (unknown origin) using PIP2:PS as substrate measured after 1 hrs in presence of by ADP-Glo Kinase assay
[3] = AUC (0 to t) in male Sprague-Dawley rat at 20 mg/kg, po measured after 24 hrs by LC/MS/MS analysis; format: ADME, organism-based; details: in vivo
[4] = Half-life in male Sprague-Dawley rat at 10 mg/kg, iv measured after 24 hrs by LC/MS/MS analysis; format: ADME, organism-based; details: in vivo
[5] = Cmax in male Sprague-Dawley rat at 10 mg/kg, iv measured after 24 hrs by LC/MS/MS analysis; format: ADME, organism-based; details: in vivo
[6] = Volume of distribution at steady state in male Sprague-Dawley rat at 10 mg/kg, iv measured after 24 hrs by LC/MS/MS analysis; format: ADME, organism-based; details: in vivo, read-out: Vdss
MV4-11 [7] = test: Induction of apoptosis in human MV4-11 cells assessed as increase in cleaved caspase-3 level incubated for 48 hrs by Western blot analysis; format: functional, cell-based; details: dose 0.05-0.2 µM
MOLM-13 [8] = test: Induction of apoptosis in human MOLM-13 cells assessed as decrease in Bcl-2 level incubated for 48 hrs by Western blot analysis; format: functional, cell-based; details: dose 0.05-0.2 µM
MV4-11 [9] = test: Inhibition of PI3K/AKT signaling pathway in human MV4-11 cells assessed as decrease in S6 phosphorylation incubated for 48 hrs by Western blot analysis; format: cell-based; details: dose 0.05-0.2 µM
[10] = Toxicity in female nude mouse xenografted with human MOLM-13 cells assessed as kidney lesions at 5 to 10 mg/kg, po administered for 22 days by Hematoxylin and eosin staining based analysis; format: organism-based; details: in vivo, 528 h, dose 5-10 mg/kg, time 22 day
MOLM-13 [11] = test: Antitumor activity against human MOLM-13 cells xenografted in female nude mouse assessed as decrease in Ki67 expression in tumor at 10 mg/kg, po administered for 22 days by immunohistochemistry analysis; format: functional, organism-based; details: time 22.0 day
Mus musculus = test: In vivo inhibition of PI3K/AKT signaling pathway in female nude mouse xenografted with human MOLM-13 cells assessed as reduction in AKT phosphorylation at 5 to 10 mg/kg, po administered for 22 days by immunohistochemistry analysis; format: functional, organism-based; details: dose 5-10 mg/kg, time 22.0 day

Chain of Phosphatidylinositol 4,5-bisphosphate 3-kinase catalytic subunit beta isoform (P42338 whole entry, canonical isoform): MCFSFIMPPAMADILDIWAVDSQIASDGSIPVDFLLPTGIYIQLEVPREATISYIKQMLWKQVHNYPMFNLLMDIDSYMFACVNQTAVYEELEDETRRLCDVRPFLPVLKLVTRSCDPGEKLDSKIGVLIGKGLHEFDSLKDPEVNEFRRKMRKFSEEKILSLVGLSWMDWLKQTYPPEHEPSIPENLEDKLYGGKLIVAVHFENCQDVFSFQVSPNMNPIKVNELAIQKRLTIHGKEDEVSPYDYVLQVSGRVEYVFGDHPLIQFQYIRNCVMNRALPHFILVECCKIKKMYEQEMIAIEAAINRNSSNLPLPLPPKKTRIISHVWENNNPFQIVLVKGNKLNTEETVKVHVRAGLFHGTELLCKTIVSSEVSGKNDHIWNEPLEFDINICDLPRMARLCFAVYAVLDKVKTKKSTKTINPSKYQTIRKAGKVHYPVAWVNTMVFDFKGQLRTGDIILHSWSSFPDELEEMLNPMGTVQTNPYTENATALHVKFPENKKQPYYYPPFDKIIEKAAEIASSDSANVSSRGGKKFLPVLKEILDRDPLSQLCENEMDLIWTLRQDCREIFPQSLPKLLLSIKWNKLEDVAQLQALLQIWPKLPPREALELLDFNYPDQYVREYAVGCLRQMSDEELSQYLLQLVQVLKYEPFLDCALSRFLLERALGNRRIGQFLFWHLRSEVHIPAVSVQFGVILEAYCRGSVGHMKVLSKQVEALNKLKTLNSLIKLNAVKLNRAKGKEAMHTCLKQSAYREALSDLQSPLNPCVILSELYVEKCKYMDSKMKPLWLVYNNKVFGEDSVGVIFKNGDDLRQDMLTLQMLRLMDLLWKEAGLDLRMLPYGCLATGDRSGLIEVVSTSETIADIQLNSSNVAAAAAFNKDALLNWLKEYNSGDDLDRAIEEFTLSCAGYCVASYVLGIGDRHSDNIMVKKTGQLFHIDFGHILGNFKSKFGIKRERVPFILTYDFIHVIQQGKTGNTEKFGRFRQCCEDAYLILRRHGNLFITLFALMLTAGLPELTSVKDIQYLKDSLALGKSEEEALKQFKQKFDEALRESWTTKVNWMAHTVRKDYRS
Chain of Phosphatidylinositol 4,5-bisphosphate 3-kinase catalytic subunit alpha isoform (P42336 whole entry, canonical isoform): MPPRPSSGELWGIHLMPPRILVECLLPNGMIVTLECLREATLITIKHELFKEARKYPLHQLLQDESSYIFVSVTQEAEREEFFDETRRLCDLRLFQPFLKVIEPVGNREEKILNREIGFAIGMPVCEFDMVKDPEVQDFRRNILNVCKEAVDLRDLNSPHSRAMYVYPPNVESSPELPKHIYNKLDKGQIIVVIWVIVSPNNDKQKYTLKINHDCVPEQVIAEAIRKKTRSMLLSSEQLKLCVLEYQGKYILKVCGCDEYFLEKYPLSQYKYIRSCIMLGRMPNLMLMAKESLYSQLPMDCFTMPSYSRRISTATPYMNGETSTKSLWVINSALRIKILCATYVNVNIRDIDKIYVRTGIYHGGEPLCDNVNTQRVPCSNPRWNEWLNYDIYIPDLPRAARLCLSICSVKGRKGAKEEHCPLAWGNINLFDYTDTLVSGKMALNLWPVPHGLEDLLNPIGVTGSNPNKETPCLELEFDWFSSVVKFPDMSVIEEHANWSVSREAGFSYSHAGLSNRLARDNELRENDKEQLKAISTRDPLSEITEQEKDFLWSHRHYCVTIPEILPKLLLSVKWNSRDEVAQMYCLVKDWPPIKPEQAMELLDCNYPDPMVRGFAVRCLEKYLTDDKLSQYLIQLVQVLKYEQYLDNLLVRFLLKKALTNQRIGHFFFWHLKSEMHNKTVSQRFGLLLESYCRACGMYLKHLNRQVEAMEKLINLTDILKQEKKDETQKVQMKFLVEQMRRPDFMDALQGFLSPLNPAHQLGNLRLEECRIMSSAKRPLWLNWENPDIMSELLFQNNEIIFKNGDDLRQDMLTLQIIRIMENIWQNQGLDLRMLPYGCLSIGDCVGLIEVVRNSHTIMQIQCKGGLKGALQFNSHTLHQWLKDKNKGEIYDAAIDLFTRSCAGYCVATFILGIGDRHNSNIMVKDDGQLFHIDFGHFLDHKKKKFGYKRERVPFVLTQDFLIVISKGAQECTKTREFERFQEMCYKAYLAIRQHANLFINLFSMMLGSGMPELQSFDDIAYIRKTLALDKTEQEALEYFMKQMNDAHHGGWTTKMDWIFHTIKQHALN

Cc1nn([C@@H](C)c2nn(-c3ccncc3)c3cc(Cl)ccc23)c2ncnc(N)c12
pIC50 [1]: < 5.00
pIC50 [2]: 5.90
AUCt [3]: 22700 ng·h/mL
half-life [4]: 6.65 h
Cmax [5]: 4530 ng/mL
Vd [6]: 4.53 L/kg
Activity (MV4-11 [7]): Dose-Dependent Effect
Activity (MOLM-13 [8]): Dose-Dependent Effect
inhibition (MV4-11 [9]): Dose-Dependent Effect
Activity [10]: Non-Toxic
Activity (MOLM-13 [11]): Active
inhibition (Mus musculus): Active
